Data: patent publication US9216181B2 (Southwest Research Institute, priority 2011, dated 2015)
Structures can show the parent of a compound that is named as a salt. Where two headings read alike, the source gives them in different places.

Key:
BMP-2 [1] = test: Real time PCR of BMP-2 gene expression in human MSC (Cells-to-Ct); type: cell-based; conditions: BMP-2 mRNA, hMSC, 5-10 μM, 24 hours, vs untreated
Procedure: Early passage human mesenchymal stem cells (MSC) were thawed from one frozen cryo-vial and seeded into two T-75 tissue culture flasks and incubated at 37° C. for 48 hours in Alpha MEM with 10% FBS. After three days and one re-feeding, the cells were trypsinized and re-suspended in pre-warmed media at 5×10^4 cells/mL to provide 5,000 cells per well in a 96 well plate and incubated overnight at 37° C. in 5% CO2.
Each well was washed in cold PBS, lysed at room temperature for five minutes, and stop reagent added to each well to stop the lysis reaction. The final lysate was kept cold at 4° C. and used immediately as the RNA template for the reverse transcription cDNA synthesis following the TAQMAN GENE EXPRESSION CELLS TO CT KIT instructions.
The cDNA synthesis was prepared on a separate sterile 96-well PCR plate and performed on the Step One Plus Real Time PCR System instrument (Applied Biosystems) with the programming set at 37° C. for 60 minutes and an inactivation hold of 95° C. for five minutes. The final cDNA reaction was kept cold and used as the template for the TAQMAN GENE Real-Time PCR step following the recommended instructions for TAQMAN GENE EXPRESSION CELLS TO CT KIT assay. […] Template cDNA's were added separately to respective individual wells in replicate samples.
The PCR was performed on the STEPONEPLUS Real-Time System instrument (Applied Biosystems). The amplification program consisted of 1 cycle of 95° C. with 10 minute hold (hot start) and followed by 50 cycles of 95° C. with 15-second annealing hold and 1-minute 60° C. specified acquisition hold.

BMP2 = test: Quantitative PCR (TaqMan, ΔΔCt) of BMP2 in human mesenchymal stem cells; type: cell-based; conditions: Homo sapiens, Mesenchymal stem cells, BMP2 mRNA, hMSC, 10 μM, vs untreated, 18S reference, read-out: q-PCR Fold increase
Procedure: (§1) Human mesenchymal stem cells (LONZA, Catalog PT2501) were maintained in Mesenchymal stem cells basal media (MSCBM CAT#PT-3238). Early passage cells were plated in triplicate at 2×10^4 cells/cm^2 using six well tissue culture plates and grown in humidified 5% CO2 at 37° C. for 24 hours. Spent media was replaced by assay media of drugs to be tested in same media as above at 10 μM final concentration. Untreated cells were used as the control group. Total RNA were prepared using either TRI Reagent (Ambion, Cat. 9738), for subsequent TaqMan gene expression qPCR of BMP2. RNA concentration and integrity was assessed by absorbance 260/280 and electrophoresis in 1% Agarose with formaldehyde loading dye. For TaqMan gene expression, cDNA was synthesized from 2 μg of total RNA using the High Capacity cDNA Reverse Transcription Kit (Applied Biosystems, Cat. 4368814). The resulting cDNA were diluted 1:100 for TaqMan and amplified by real-time quantitative PCR. Gene-specific fluorescent labeled TaqMan primers for FAM-BMP2 (Applied Biosystems, Hs00154192.m1) and TaqMan reference VIC-18S ribosomal RNA (Applied Biosystems, 4310893E) were used to target gene of interest. A cocktail of universal master mix (Applied Biosystems, 4369016) were prepared individually for both set of primers which contained Taq Polymerase, dNTPs, and buffer. Template cDNA's were added separately to respective individual wells in triplicate samples. The PCR were performed on StepOne Plus Real Time System instrument (Applied Biosystems). The amplification program consisted of 1 cycle of 95° C. with 10 minute hold (hot start) followed by 50 cycles of 95° C. with 15 second annealing hold and 1 minute 60° C. specified acquisition hold. The Ct value of endogenous reference gene (i.e. 18 s) was used to control for input RNA and then used to normalize target gene (i.e. BMP2) tested from the same cDNA sample to calculate the Δ Ct, and then calibrated to an internal reference sample. Change in gene expression was determined by the expression ΔΔCt relative method.
18 compounds were confirmed positive by the more stringent qPCR techniques. […] Included in the tables is the target or common medical use for each compounds.

BMP-2 [2] = test: Study II real time PCR, BMP-2 up-regulation in mesenchymal stem cells; type: cell-based, human; conditions: hMSC, 24 hour
Procedure: (§2) The testing procedure follows.
(§3) Cells based assays are done using 6 wells tissue culture plates, seeded with human mesenchymal stem cells (MSC) from Lonza, culture at 80% density. After seeding cells are treated with selected compounds at 10 μM, 5 μM and 2.5 μM for a 24 hour period, mRNA is collected using Qiagen kit RNAeasy kit and cDNA is prepared with same Qiagen kit, RT-PCR is done using kit from SABiosciences to measure gene expression for BMP2, 4 and 7 and run in Applied Biosystems Step One Plus. The protocol for mRNA isolation is described below.
(§4) Human mesenchymal stem cell growth medium passage 3 plated in a 6 well plate at 2.5×10^5 cells/well in hMSC Basal Medium+BulletKit (50 ml Growth Supplement, 10 ml L-Glutamine and 0.5 ml Gentamicin Sulfate Amphotericin-B) for 24 hrs. The compounds to be tested were added and after 24 hrs the media was aspirated, rinsed well once with PBS, and aspirated again. 350 ul of Lysis Buffer was added and the cells were stored at −20° C.
(§5) The lysate was homogenized by pipetting the lysate directly into a QIA shredder spin column placed in a 2-mL collection tube, and centrifuge for 2 min at full speed. 70% ethanol was added (1 vol. or […]) to the homogenized lysate (now at the bottom of the collection tube), and mixed well by pipetting. Up to 700 μL of the sample was transferred, including any precipitate that may have formed, to an RNeasy spin column placed in a 2-mL collection tube. This was centrifuged for 15 seconds at full speed. 700 μL of Buffer RW1 was added to the RNeasy spin column. This was centrifuged for 15 seconds at full speed to wash the spin column membrane.
(§6) 500 μL of Buffer RPE was added to the RNeasy spin column and centrifuged for 15 seconds at full speed. The flow through was discarded. 500 μL of Buffer RPE was added to the RNeasy spin column and centrifuged for 2 minutes at full speed to wash the spin column membrane. The RNeasy spin column was removed from the collection tube and the flow-through was discarded.
(§7) The RNeasy spin column was placed in a new 2-mL collection tube and centrifuged for 1 minute at full speed. The RNeasy spin column was removed from the collection tube, and the flow-through was discarded. The RNeasy spin column was placed in a new 1.5-mL collection tube. 30-50 μL of RNase-free water was added directly to the spin column membrane and this was centrifuged for 1 minute at full speed to elute the RNA.

BMP-4 = test: Study II real time PCR, BMP-4 up-regulation in mesenchymal stem cells; type: cell-based, human; conditions: hMSC, 24 hour, 2.5, 5 and 10 μM tested
Procedure: as §2, §3, §4, §5, §6
The RNeasy spin column was placed in a new 2-mL collection tube and centrifuged for 1 minute at full speed. […]

BMP-7 = test: Study II real time PCR, BMP-7 up-regulation in mesenchymal stem cells; type: cell-based, human; conditions: hMSC
Procedure: as §2, §3, §4, §5, §6, §7

[3] = test system: human mesenchymal stem cells (MSC); type: cell-based; design: key: *: Dose caused cell death; conditions: hMSC, 24 hrs
BMP-2 [4] = test: BMP-2 fold change of JHU library compounds, confirmed by qPCR; type: cell-based, human; conditions: JHU library compounds; non-treated = 1.00
From the text: To further verify the technique, a 2T3 mouse pre-osteoblast cell line derived from calvaria courtesy of Dr. Steve Harris, UTHSCSA, was utilized to visually screen the compounds of the BIOMOL library and JHU libraries, purchased from John Hopkins University including 2387 compounds (solution in wells). Specifically, Murine 2T3 were thawed from one frozen cryovial and re-seeded into two T-75 tissue culture flasks grown in Alpha MEM with 10% FBS, Glutamine, and Pen/Strip antibiotics. Cells were incubated in a humidified 37° C. under 5% CO2 for 48 hours or when cells reached 80% confluence. After reaching confluency, the 2T3 were trypsinized and resuspended in pre-warm growth media to a cell density of 5×10^4 cells/mL. Approximately 100 uL of cell suspension was seeded to a 96 well plate to give a final 5,000 cells per well. Plate was incubated overnight at 37° C. and spent media was aspirated and replace with 100 uL of growth media with 5-10 uM of presumptive drug compounds. A set of controls were untreated and treated with 10 uM of Lovastatin to be used as a visual reference morphological screening.
as §1, with “Total RNA were prepared using either TRI Reagent (Ambion, Cat. 9738), for subsequent TaqMan gene expression qPCR of BMP2.” left out, “Gene-specific fluorescent labeled TaqMan primers for FAM-BMP2 (Applied Biosystems, Hs00154192.m1) and TaqMan reference VIC-18S ribosomal RNA (Applied Biosystems, 4310893E) were used to target gene of interest.” left out, “The Ct value of endogenous reference gene (i.e. 18 s) was used to control for input RNA and then used to normalize target gene (i.e. BMP2) tested from the same cDNA sample to calculate the Δ Ct, and then calibrated to an internal reference sample.” left out
Included in the tables is the target or common medical use for each compounds.

[5] = positive control compounds (Table 1)

For `COc1ccc(CCN2CCC(Nc3nc4ccccc4n3Cc3ccc(F)cc3)CC2)cc1` [Astemizole], the “RT PCR Fold increase” value (BMP-2 [1]; BIOMOL library (Table 2)) was 156.2 fold, the fold induction at 10 µM (BMP2; BIOMOL library (Table 2)) was 1 and the “BMP-2 Fold Increase/Dose” value (BMP-2 [2]; 5 μM) was roughly 30 fold. The “BMP-2 Fold Increase/Dose” value (BMP-2 [2]; 10 μM) was roughly 7 fold, the “BMP-2 fold increases (in words)” value (BMP-2 [2]) was “exhibit BMP-2 fold increases” and the “BMP-4 Fold Increase/Dose” value (BMP-4) was “None”. For the same molecule, the “BMP-7 Fold Increase/Dose” value (BMP-7; 2.5 μM, 24 hour) was ~8/2.5 fold and the “BMP-7 fold increases (in words)” value (BMP-7; 24 hour) was “exhibit BMP-7 fold increases”.

In the case of `CC(C)(C)c1ccc(C(=O)CCCN2CCC(OC(c3ccccc3)c3ccccc3)CC2)cc1` [Ebastine], the “BMP-2 Fold Increase/Dose” value (BMP-2 [2]; 10 μM) is reported as ~8/10 μM fold, the “BMP-2 fold increases (in words)” value (BMP-2 [2]) is reported as “exhibit BMP-2 fold increases” and the cell death ([3]; 10 uM) is reported as “*Ebastine”. For the same molecule, the “BMP-4 Fold Increase/Dose” value (BMP-4) was “None”, the “BMP-7 Fold Increase/Dose” value (BMP-7; 10 μM, 24 hour) was ~3/10 fold and the “BMP-7 fold increases (in words)” value (BMP-7; 24 hour) was “exhibit BMP-7 fold increases”.

For `COC(=O)c1ccc(O)c2nc3c(C=O)c(O)cc(O)c3nc12` [Lomofungin], the “RT PCR Fold increase” value (BMP-2 [1]; BIOMOL library (Table 2)) was 32.6 fold, the fold induction at 10 µM (BMP2; BIOMOL library (Table 2)) was 14.2 and the “Fold change (BMP-2)” value (BMP-2 [4]) was 26.00 fold.

`CCCOc1ccc2nc(NC(=O)OC)[nH]c2c1` [Oxibendazole] was tested, and the “RT PCR Fold increase” value (BMP-2 [1]; BIOMOL library (Table 2)) was 4.5 fold, the fold induction at 10 µM (BMP2; BIOMOL library (Table 2)) was 1.4 and the “Fold change (BMP-2)” value (BMP-2 [4]) was 18.00 fold.

With `CN(C)CCC(c1ccccc1)c1ccccn1` (centres unmarked) [Pheniramine] the “BMP-2 Fold Increase/Dose” value (BMP-2 [2]; 10 μM) was ~2/10 μM fold, the “BMP-2 fold increases (in words)” value (BMP-2 [2]) was “exhibit BMP-2 fold increases” and the “BMP-4 Fold Increase/Dose” value (BMP-4) was “None”. For the same molecule, the “BMP-7 Fold Increase/Dose” value (BMP-7; 24 hour, 2.5, 5 and 10 μM tested, no dose stated) was “None”.

With `CCN(CC)CCCC(C)Nc1c2ccc(Cl)cc2nc2ccc(OC)cc12` (centres unmarked) [Quinacrine] the “RT PCR Fold increase” value (BMP-2 [1]; BIOMOL library (Table 2)) was 52.9 fold, the fold induction at 10 µM (BMP2; BIOMOL library (Table 2)) was 95 and the cell death ([3]; 5 uM) was “*Quinacrine”. For the same molecule, the cell death ([3]; 10 uM) was “*Quinacrine” and the “Fold change (BMP-2)” value (BMP-2 [4]) was 722.00 fold.

With `CC[C@]1(O)C[C@@H]2CN(CCc3c([nH]c4ccccc34)[C@@](C(=O)OC)(c3cc4c(cc3OC)N(C)[C@H]3[C@@](O)(C(=O)OC)[C@H](OC(C)=O)[C@]5(CC)C=CCN6CC[C@]43[C@@H]65)C2)C1` [Vinblastine sulfate] the “RT PCR Fold increase” value (BMP-2 [1]; [5]) was 9.5 fold, the fold induction at 10 µM (BMP2; [5]) was 1.7 and the “Fold change (BMP-2)” value (BMP-2 [4]) was 64.00 fold.

`CC[C@]1(O)C[C@H]2CN(CCc3c([nH]c4ccccc34)[C@@](C(=O)OC)(c3cc4c(cc3OC)N(C=O)[C@H]3[C@@](O)(C(=O)OC)[C@H](OC(C)=O)[C@]5(CC)C=CCN6CC[C@]43[C@@H]65)C2)C1` [Vincristine sulfate] was tested, and the “RT PCR Fold increase” value (BMP-2 [1]; [5]) was 10.8 fold, the fold induction at 10 µM (BMP2; [5]) was 1.8 and the “Fold change (BMP-2)” value (BMP-2 [4]) was 57.00 fold.
